According to patent publication US10294202B2, “Pyrrolidinones as herbicides” (FMC Corporation, priority 2013, dated 2019):

Columns and labels:
barnyardgrass [1] = experiment: Test A pre-/postemergence herbicide test; type: in vivo, Echinochloa crus-galli
Outline: (§1)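 Scoring was visual, relative to untreated controls, on a 0–100 scale after about 10 greenhouse days. Preemergence treatment used a directed soil spray over seeded loam/sand; postemergence treatment targeted one- to two-leaf plants of 2–10 cm.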

kochia = experiment: Test A pre-/postemergence herbicide test; type: in vivo, Kochia scoparia; conditions: for Plant response rating, Kochia: 0 to 100 scale
Outline: as §1

ragweed = experiment: Test A pre-/postemergence herbicide test; type: in vivo, Ambrosia elatior; conditions: for Plant response rating, Ragweed: 0 to 100 scale
Outline: as §1

ryegrass, Italian = experiment: Test A pre-/postemergence herbicide test; type: in vivo, Lolium multiflorum; conditions: for Plant response rating, Ryegrass, Italian: 0 to 100 scale
Outline: as §1

giant foxtail = experiment: Test A pre-/postemergence herbicide test; type: in vivo, Setaria faberii; conditions: for Plant response rating, Foxtail, Giant: 0 to 100 scale
Outline: as §1

pigweed = experiment: Test A pre-/postemergence herbicide test; type: in vivo, Amaranthus retroflexus; conditions: for Plant response rating, Pigweed: 0 to 100 scale
Outline: as §1

wheat = experiment: Test A pre-/postemergence herbicide test; type: in vivo, Triticum aestivum; conditions: Postemergence; for Plant response rating, Wheat: 125 g ai/ha, 0 to 100 scale, 0 is no effect, 100 is complete control; for Wheat plant response rating (0 to 100 scale, 0 is no effect, 100 is complete control): 500 g ai/ha
Outline: as §1

corn = experiment: Test A pre-/postemergence herbicide test; type: in vivo, Zea mays; conditions: Postemergence; for Plant response rating, Corn: 125 g ai/ha, 0 to 100 scale, 0 is no effect, 100 is complete control; for Corn plant response rating (0 to 100 scale, 0 is no effect, 100 is complete control): 500 g ai/ha
Outline: as §1

blackgrass = experiment: Test A postemergence herbicide test; type: in vivo, Alopecurus myosuroides; conditions: for Plant response rating, Blackgrass: 125 g ai/ha, 0 to 100 scale, 0 is no effect, 100 is complete control; for Blackgrass plant response rating (0 to 100 scale, 0 is no effect, 100 is complete control): 500 g ai/ha
Outline: (§2)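 Young potted plants in a loam–sand mix, one- to two-leaf stage and 2–10 cm tall, receive the test chemical postemergence and stay in a greenhouse for approximately 10 days. Injury is then judged by eye against untreated plants, scored 0 (none) to 100 (complete control).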

galium = experiment: Test A postemergence herbicide test; type: in vivo, Galium aparine; conditions: for Plant response rating, Galium: 125 g ai/ha, 0 to 100 scale, 0 is no effect, 100 is complete control; for Galium plant response rating (0 to 100 scale, 0 is no effect, 100 is complete control): 500 g ai/ha
Outline: as §2

rice = experiment: Test B flooded paddy test; type: in vivo, Oryza sativa; conditions: Flood, scale of 0 to 100 where 0 is no effect and 100 is complete control
Outline: (§3)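 First, plants reach the 2-leaf stage; next, pots are flooded to 3 cm and compound is delivered into the water; finally, after 13 to 15 greenhouse days at constant depth, injury is graded visually from 0 to 100 against controls.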

sedge, umbrella = experiment: Test B flooded paddy test; type: in vivo, Cyperus difformis; conditions: Flood, scale of 0 to 100 where 0 is no effect and 100 is complete control
Outline: as §3

ducksalad = experiment: Test B flooded paddy test; type: in vivo, Heteranthera limosa; conditions: Flood, scale of 0 to 100 where 0 is no effect and 100 is complete control
Outline: as §3

barnyardgrass [2] = experiment: Test B flooded paddy test; type: in vivo, Echinochloa crus-galli; conditions: Flood, scale of 0 to 100 where 0 is no effect and 100 is complete control
Outline: as §3

[3] = 125 g ai/ha, visual rating, 0 to 100 scale, 0 no effect, 100 complete control, approximately 10 days, preemergence
[4] = Postemergence, 125 g ai/ha, 0 to 100 scale, 0 is no effect, 100 is complete control
[5] = preemergence, 500 g ai/ha, 0 to 100 scale (0 no effect, 100 complete control)
[6] = 125 g ai/ha, visual rating, 0 no effect, 100 complete control, approximately 10 days, preemergence
[7] = Postemergence, 125 g ai/ha, 0 is no effect, 100 is complete control
[8] = preemergence, 500 g ai/ha, 0 is no effect and 100 is complete control

| SMILES | Plant response rating, Barnyardgrass (barnyardgrass [1]; [3]) | Plant response rating, Barnyardgrass (barnyardgrass [1]; [4]) | Barnyardgrass plant response rating (0 to 100 scale, 0 is no effect, 100 is complete control) (barnyardgrass [1]; Postemergence, 500 g ai/ha) | Plant response rating, Kochia (kochia; [6]) | Plant response rating, Kochia (kochia; [7]) | Kochia plant response rating (0 to 100 scale, 0 is no effect, 100 is complete control) (kochia; Postemergence, 500 g ai/ha) | Plant response rating, Kochia (kochia; [8]) | Plant response rating, Ragweed (ragweed; [6]) | Plant response rating, Ragweed (ragweed; [7]) | Ragweed plant response rating (0 to 100 scale, 0 is no effect, 100 is complete control) (ragweed; Postemergence, 500 g ai/ha) | Plant response rating, Ragweed (ragweed; [8]) | Plant response rating, Ryegrass, Italian (ryegrass, Italian; [6]) | Plant response rating, Ryegrass, Italian (ryegrass, Italian; [7]) | Ryegrass, Italian plant response rating (0 to 100 scale, 0 is no effect, 100 is complete control) (ryegrass, Italian; Postemergence, 500 g ai/ha) | Plant response rating, Ryegrass, Italian (ryegrass, Italian; [8]) | Plant response rating, Foxtail, Giant (giant foxtail; [6]) | Plant response rating, Foxtail, Giant (giant foxtail; [7]) | Foxtail, Giant plant response rating (0 to 100 scale, 0 is no effect, 100 is complete control) (giant foxtail; Postemergence, 500 g ai/ha) | Plant response rating, Pigweed (pigweed; [6]) | Plant response rating, Pigweed (pigweed; [7]) | further results |
| --- | --- | --- | --- | --- | --- | --- | --- | --- | --- | --- | --- | --- | --- | --- | --- | --- | --- | --- | --- | --- | --- |
| O=C1NCC(c2cccc(C(F)F)c2)C1C(=O)Nc1cccc(F)c1F (racemic) [Compound 164] | 90 | 90 | 90 | 60 | 60 | 70 | 80 | 20 | 20 | 50 | 60 | 20 | 40 | 50 | 50 | 90 | 70 | 90 | 50 | 20 | Plant response rating, Barnyardgrass (barnyardgrass [1]; [5]): 90; Plant response rating, Foxtail, Giant (giant foxtail; preemergence, 500 g ai/ha): 90; Pigweed plant response rating (0 to 100 scale, 0 is no effect, 100 is complete control) (pigweed; Postemergence, 500 g ai/ha): 60; Plant response rating, Pigweed (pigweed; [8]): 70; Plant response rating, Wheat (wheat): 40; Wheat plant response rating (0 to 100 scale, 0 is no effect, 100 is complete control) (wheat): 80; Plant response rating, Corn (corn): 50; Corn plant response rating (0 to 100 scale, 0 is no effect, 100 is complete control) (corn): 80; Plant response rating, Blackgrass (blackgrass): 50; Blackgrass plant response rating (0 to 100 scale, 0 is no effect, 100 is complete control) (blackgrass): 70; Plant response rating, Galium (galium): 50; Galium plant response rating (0 to 100 scale, 0 is no effect, 100 is complete control) (galium): 60; Plant response rating, Rice (rice; 500 g ai/ha): 20; Plant response rating, Sedge, Umbrella (sedge, umbrella; 500 g ai/ha): 0; Plant response rating, Ducksalad (ducksalad; 500 g ai/ha): 100; Plant response rating, Barnyardgrass (barnyardgrass [2]; 500 g ai/ha): 80 |
| CCc1cccc(C2CNC(=O)C2C(=O)Nc2ccccc2F)c1 (racemic) [Compound 169] | 90 | 90 | 90 | 40 | 0 | 40 | 60 | 0 | 0 | 0 | 20 | 0 | 20 | 40 | 20 | 80 | 60 | 90 | 0 | 0 | Plant response rating, Barnyardgrass (barnyardgrass [1]; [5]): 90; Plant response rating, Foxtail, Giant (giant foxtail; preemergence, 500 g ai/ha): 90; Pigweed plant response rating (0 to 100 scale, 0 is no effect, 100 is complete control) (pigweed; Postemergence, 500 g ai/ha): 0; Plant response rating, Pigweed (pigweed; [8]): 20; Plant response rating, Wheat (wheat): 0; Wheat plant response rating (0 to 100 scale, 0 is no effect, 100 is complete control) (wheat): 50; Plant response rating, Corn (corn): 0; Corn plant response rating (0 to 100 scale, 0 is no effect, 100 is complete control) (corn): 50; Plant response rating, Blackgrass (blackgrass): 30; Blackgrass plant response rating (0 to 100 scale, 0 is no effect, 100 is complete control) (blackgrass): 60; Plant response rating, Galium (galium): 20; Galium plant response rating (0 to 100 scale, 0 is no effect, 100 is complete control) (galium): 50; Plant response rating, Rice (rice; 500 g ai/ha): 0; Plant response rating, Sedge, Umbrella (sedge, umbrella; 500 g ai/ha): 0; Plant response rating, Ducksalad (ducksalad; 500 g ai/ha): 100; Plant response rating, Barnyardgrass (barnyardgrass [2]; 500 g ai/ha): 80 |
| COc1ccc(C2CNC(=O)C2C(=O)Nc2ccccc2F)cc1C(F)(F)F (racemic) [Compound 209] | 30 | 60 | 80 | 0 | 0 | 0 | 20 | 0 | 0 | 0 | 0 | 0 | 0 | 20 | 20 | 50 | 40 | 70 | 0 | 0 | Plant response rating, Barnyardgrass (barnyardgrass [1]; preemergence, 500 g ai/ha, 0 to 100 scale, 0 is no effect and 100 is complete control): 60; Plant response rating, Foxtail, Giant (giant foxtail; [8]): 90; Pigweed plant response rating (0 to 100 scale, 0 is no effect, 100 is complete control) (pigweed; Postemergence, 500 g ai/ha): 0; Plant response rating, Pigweed (pigweed; [8]): 20; Plant response rating, Wheat (wheat): 0; Wheat plant response rating (0 to 100 scale, 0 is no effect, 100 is complete control) (wheat): 0; Plant response rating, Corn (corn): 0; Corn plant response rating (0 to 100 scale, 0 is no effect, 100 is complete control) (corn): 0; Plant response rating, Blackgrass (blackgrass): 0; Blackgrass plant response rating (0 to 100 scale, 0 is no effect, 100 is complete control) (blackgrass): 20; Plant response rating, Galium (galium): 0; Galium plant response rating (0 to 100 scale, 0 is no effect, 100 is complete control) (galium): 0; Plant response rating, Rice (rice; 1000 g ai/ha): 0; Plant response rating, Sedge, Umbrella (sedge, umbrella; 1000 g ai/ha): 0; Plant response rating, Ducksalad (ducksalad; 1000 g ai/ha): 95; Plant response rating, Barnyardgrass (barnyardgrass [2]; 1000 g ai/ha): 45 |
